Experimental findings from patent US11952362B2, “Compositions and methods for treating epigenetic disease” (The Regents of the University of California, priority 2018, dated 2024) are described below.

The structures appear in SMILES notation.

The test system of test [1] is RT-112 bladder cancer cells. In words: Cell viability assay (CellTiter Glo), RT-112. The class given is cell-based. The protocol: Pancreatic cancer cell lines (MIA PaCa-2 and CAPAN-2) were purchased from ATCC. MIA PaCa-2 were grown in DMEM and CAPAN-2 in McCoy's 5A (Gibco). Colon cancer cell lines (SW480 and HT-29) were purchased from ATCC. SW480 were grown in Leibovitz's L-15 (ATCC) and HT-29 in McCoy's 5A (Gibco). Lung cancer cell lines (NCI 460 and NCI 1975) were purchased from ATCC and grown in RPMI 1640 (Gibco). PC-3 prostate cancer cell line was purchased from ATCC and grown in F-12K (ATCC). Bladder cancer cell line 5637 was purchased from ATCC and RT-112 was purchased from Sigma-Aldrich and was grown in RPMI 1640 (Gibco). Bladder cancer cell lines, UMUC-9, UMUC-15 and UMUC-7 were purchased from MD Anderson and were grown in EMEM (ATCC). Bladder cancer cell line J82 was purchased from ATCC and was grown in EMEM (ATCC). SW1710 and EJ28 bladder cancer cell lines were purchased from DSMZ and were grown in DMEM (ATCC) and RPMI-1640 (Gibco), respectively. Bladder cancer cell line T24 was purchased from ATCC and grown in McCoy's 5A (Gibco). Bladder cancer cell line BC-3C was purchased from DSMZ and was grown in McCoy's 5A (Gibco). All media were supplemented with 10% FBS (Gemini Bioproducts) and 1% Antibiotic-Antimycotic (Gibco). In the case of MIA PaCa-2, medium was also supplemented with 2.5% horse serum (Gibco). NCM356 colon epithelial cell lines were growth in M3:10 (INCELL, San Antonio, Tex.). A CMV-driven-HDAC9 vector was used to overexpress HDAC9 levels in NCM356 cells. IL1B and TNFA mRNA levels were measured by qPCR analysis as described previously (Fang K et al. Am J Pathol, 188(3):586-99, 2018).
(§1) 1.8×10^3 cells/well were plated in quadruplicates in 96-well plate and treated with exogenously added MJK analogues 6 hours after plating. For the experiments performed to calculate the IC50s of HDAC9 analogues, a secondary treatment of exogenously added MJK analogues was performed 2 days later. Cell growth was assessed 1, 3, 5 or 7 days after plating using the CellTiter Glo Luminescence Cell Viability Assay (Promega) according to manufacturer's protocol. For the experiments where the effect of combinatorial treatment of MJK-004 analogues with chemotherapy was assessed, treatment of cells with gemcitabine (10 nM) or 5-fluouracil (2000 nM) was performed one day after MJK-004 treatment and the cells were further treated with exogenously added MJK analogues 2 days later. Cell growth was assessed 3, 4, 5 or 6 days after plating using the CellTiter Glo Luminescence Cell Viability Assay (Promega) according to manufacturer's protocol. Data are expressed as mean […] (arbitrary units)±S.D.
(§2) Cell Viability Assays were employed to determine the concentration of MJK analogues where the response is reduced by half. For each treatment of cancer cells, 1, 2, 5, 10 and 20 μM of MJK analogues were applied. GraphPad Prism 7 software was used to fit dose response curves. Relative Luciferase Activity Units were plotted against the log values of the doses used and the nonlinear regression model was used for data analysis.
MJK-001 effects on a cancer cell line panel: The effects of MJK-001 (20 uM) on cancer cell growth was evaluated in 9 cancer cell lines, consisting of bladder, colon, lung, prostate and pancreatic cancer cell lines. Cell growth was measured on day 5. Bladder cancer cell lines (RT-112, 5637) were more responsive to MJK-001 treatment, followed by the colon and pancreatic cancer cell lines shown in Table 3.
In general terms: In ATP-based viability assays light output follows the ATP content of the culture.

A further test has as its system bladder cancer cells. Description: Bladder cancer cell growth, overall finding. The class given is cell-based. The note with it: in words. The method, then:
as §1, §2
MJK-004 efficacy on bladder cancer cell growth and colony-formation ability: Based on the above findings, the MJK compounds were examined to determine if they had substantially better efficacy than MJK-001 to suppress bladder cancer cell growth by calculating the IC50 values.
The synthesized series of MJK chemical compounds have increased specificity for HDAC9 or HDAC4 isoforms. […] On the other hand, MJK-004 is highly efficient in blocking bladder cancer cell growth through regulation of HDAC4 isoform. MJK-006 and MJK-008 compounds have the potential to be developed as therapeutics for Crohn's Disease and other auto-immune diseases. […]

[2] abbreviates: Homo sapiens, RT-112 cell growth.

With `Cn1c(/C=C/C(=O)NO)ccc1/C=C/C(=O)c1cccc(F)c1` [MJK001, (E)-3-(5-((E)-3-(3-Fluorophenyl)-3-oxoprop-1-en-1-yl)-1-methyl-1H-pyrrol-2-yl)-N-hydro-xyacrylamide], the inhibition (usually how much of the control response was suppressed) at 20 µM in test [1] (Homo sapiens, RT-112, 120 h, RT112, 20 uM, day 5, read-out: % growth inhibition) worked out at 51%. Moreover, the IC50 (as a rule, the point on the concentration scale where inhibition reaches its midpoint) in test [1] (setting [2]) worked out at 9.15 µM.

Consider `Cn1c(/C=C/C(=O)NO)ccc1/C=C/C(=O)c1cccs1` [MJK004, (E)-N-hydroxy-3-(1-methyl-5-((E)-3-oxo-3-(thiophen-2-yl)prop-1-en-1-yl)-1H-pyrrol-2-yl)acrylamide], for which the “effect on bladder cancer cell growth” value in the test on bladder cancer cells is on record as “highest efficacy”. In test [1] (setting [2]), this compound returned a half-inhibitory concentration (IC50) of 2.37 µM. In addition, in test [1] (RT-112, days 4 & 5), the “cell growth, monotherapy” value is on record as “suppressed bladder cancer growth in both cell lines as a monotherapy”. For the same compound, the “cell growth, combination with gemcitabine” value in test [1] (RT-112, gemcitabine 10 nM, days 4 & 5) was “increased gemcitabine's efficacy”.

With `Cn1c(/C=C/C(=O)NO)ccc1/C=C/C(=O)c1cccnc1` [MJK006, (E)-N-hydroxy-3-(1-methyl-5-((E)-3-oxo-3-(pyridin-3-yl)prop-1-en-1-yl)-1H-pyrrol-2-yl)acrylamide], the “effect on bladder cancer cell growth” value with bladder cancer cells is reported as “did not have any effect”. Besides, 38.3 µM corresponded to half-maximal inhibition in test [1] (setting [2]) (IC50).

For `Cl.Cn1c(/C=C/C(=O)NO)ccc1/C=C/C(=O)c1cccnc1` [MJK008, (E)-N-Hydroxy-3-(1-methyl-5-((E)-3-oxo-3-(pyridin-3-yl)prop-1-en-1-yl)-1H-pyrrol-2-yl)ac-rylamide hydrochloride], the “effect on bladder cancer cell growth” value in the test with bladder cancer cells is recorded as “did not have any effect”. In addition, the “IC50 (uM) values” in test [1] (RT-112 cell growth) was “ns”.
